{"source": "paper PMC9632963", "about": "“Preclinical characterization and phase I clinical trial of CT053PTSA targets MET, AXL, and VEGFR2 in patients with advanced solid tumors” (Frontiers in Immunology, 2022)", "system": "patients with advanced solid tumors", "assay": "Phase I trial: safety, tolerability, DLT, MTD (CTCAE v4.0)", "format": "in vivo", "description": "Eligible patients had at least one measurable lesion per RECIST v 1.1, Eastern Cooperative Oncology Group (ECOG) performance status of 0 or 1, and adequate hematological, renal, cardiac and hepatic functions. The primary objectives were to assess safety and tolerability as well as to determine the MTD, DLT, and dose recommended for further study. The secondary objectives were to assess the PK and preliminary efficacy of CT053PTSA.\nAn initial accelerated titration design was used in the 15 and 30 mg QD cohorts, and the “3+3” schema was used starting in the 60 mg QD cohort. […] The study protocol was approved by an institutional review board at Sun Yat-sen University Cancer Center. Written informed consent was obtained from all the patients before enrollment.\nDescriptive statistics of safety are presented per CTCAE v4.0. Subjects who received at least one dose of CT053PTSA were considered eligible to be evaluated and included in safety analyses. […] According to the RECIST 1.1 criteria, imaging examinations were performed at each specified time point in the protocol. The antitumor activity was measured by RECIST1.1.", "data": [{"smiles": "Cc1c(C(=O)Nc2ccc(Oc3ccnc4cc(OCC(C)(C)O)ccc34)c(F)c2)c(=O)n(-c2ccccc2)n1C", "note": "[CT053PTSA]", "values": [{"measurement": "Platelet count decreased, ≥ G3", "setting": "150mg (n = 5)", "result": "1 (20) n (%)"}, {"measurement": "Proteinuria, All", "setting": "150mg (n = 5)", "result": "0 n (%)"}, {"measurement": "Proteinuria, ≥ G3", "setting": "150mg (n = 5)", "result": "0 n (%)"}, {"measurement": "Pyrexia, All", "setting": "150mg (n = 5)", "result": "1 (20) n (%)"}, {"measurement": "Pyrexia, ≥ G3", "setting": "150mg (n = 5)", "result": "0 n (%)"}, {"measurement": "Sinus bradycardia, All", "setting": "150mg (n = 5)", "result": "1 (20) n (%)"}, {"measurement": "Sinus bradycardia, ≥ G3", "setting": "150mg (n = 5)", "result": "0 n (%)"}, {"measurement": "Stomatitis, All", "setting": "150mg (n = 5)", "result": "1 (20) n (%)"}, {"measurement": "Stomatitis, ≥ G3", "setting": "150mg (n = 5)", "result": "1 (20) n (%)"}, {"measurement": "Vomiting, All", "setting": "150mg (n = 5)", "result": "1 (20) n (%)"}, {"measurement": "Vomiting, ≥ G3", "setting": "150mg (n = 5)", "result": "0 n (%)"}, {"measurement": "leukopenia, All", "setting": "150mg (n = 5)", "result": "3 (60) n (%)"}, {"measurement": "leukopenia, ≥ G3", "setting": "150mg (n = 5)", "result": "1 (20) n (%)"}, {"measurement": "neutropenia, All", "setting": "150mg (n = 5)", "result": "2 (40) n (%)"}, {"measurement": "neutropenia, ≥ G3", "setting": "150mg (n = 5)", "result": "0 n (%)"}, {"measurement": "transaminase elevation, All", "setting": "150mg (n = 5)", "result": "4 (80) n (%)"}, {"measurement": "transaminase elevation, ≥ G3", "setting": "150mg (n = 5)", "result": "0 n (%)"}, {"measurement": "patients with DLT / patients eligible for DLT assessment", "setting": "150 mg QD", "result": "2/4 and Two of four"}, {"measurement": "Anaemia, All", "setting": "All (n = 20)", "result": "1 (5) n (%)"}, {"measurement": "Anaemia, ≥ G3", "setting": "All (n = 20)", "result": "0 n (%)"}, {"measurement": "Blood chloride decreased, All", "setting": "All (n = 20)", "result": "1 (5) n (%)"}, {"measurement": "Blood chloride decreased, ≥ G3", "setting": "All (n = 20)", "result": "0 n (%)"}, {"measurement": "Blood creatinine increased, All", "setting": "All (n = 20)", "result": "1 (5) n (%)"}, {"measurement": "Blood creatinine increased, ≥ G3", "setting": "All (n = 20)", "result": "0 n (%)"}, {"measurement": "Blood potassium decreased, All", "setting": "All (n = 20)", "result": "1 (5) n (%)"}, {"measurement": "Blood potassium decreased, ≥ G3", "setting": "All (n = 20)", "result": "0 n (%)"}, {"measurement": "Blood sodium decreased, All", "setting": "All (n = 20)", "result": "1 (5) n (%)"}, {"measurement": "Blood sodium decreased, ≥ G3", "setting": "All (n = 20)", "result": "1 (5) n (%)"}, {"measurement": "Blood uric acid increased, All", "setting": "All (n = 20)", "result": "1 (5) n (%)"}, {"measurement": "Blood uric acid increased, ≥ G3", "setting": "All (n = 20)", "result": "0 n (%)"}, {"measurement": "Decreased appetite, All", "setting": "All (n = 20)", "result": "6 (30) n (%)"}, {"measurement": "Decreased appetite, ≥ G3", "setting": "All (n = 20)", "result": "1 (5) n (%)"}, {"measurement": "Diarrhea, All", "setting": "All (n = 20)", "result": "2 (10) n (%)"}, {"measurement": "Diarrhea, ≥ G3", "setting": "All (n = 20)", "result": "0 n (%)"}, {"measurement": "Dizziness, All", "setting": "All (n = 20)", "result": "1 (5) n (%)"}, {"measurement": "Dizziness, ≥ G3", "setting": "All (n = 20)", "result": "0 n (%)"}, {"measurement": "Dry mouth, All", "setting": "All (n = 20)", "result": "1 (5) n (%)"}, {"measurement": "Dry mouth, ≥ G3", "setting": "All (n = 20)", "result": "0 n (%)"}, {"measurement": "Electrocardiogram QT prolonged, All", "setting": "All (n = 20)", "result": "3 (15) n (%)"}, {"measurement": "Electrocardiogram QT prolonged, ≥ G3", "setting": "All (n = 20)", "result": "0 n (%)"}, {"measurement": "Electrolyte imbalance, All", "setting": "All (n = 20)", "result": "1 (5) n (%)"}, {"measurement": "Electrolyte imbalance, ≥ G3", "setting": "All (n = 20)", "result": "0 n (%)"}, {"measurement": "Hemoglobin decreased, All", "setting": "All (n = 20)", "result": "1 (5) n (%)"}, {"measurement": "Hemoglobin decreased, ≥ G3", "setting": "All (n = 20)", "result": "0 n (%)"}, {"measurement": "Hypertension, All", "setting": "All (n = 20)", "result": "4 (20) n (%)"}, {"measurement": "Hypertension, ≥ G3", "setting": "All (n = 20)", "result": "1 (5) n (%)"}, {"measurement": "Hyponatremia, All", "setting": "All (n = 20)", "result": "2 (10) n (%)"}, {"measurement": "Hyponatremia, ≥ G3", "setting": "All (n = 20)", "result": "0 n (%)"}, {"measurement": "Hypoparathyroidism, All", "setting": "All (n = 20)", "result": "1 (5) n (%)"}, {"measurement": "Hypoparathyroidism, ≥ G3", "setting": "All (n = 20)", "result": "0 n (%)"}, {"measurement": "Mouth ulceration, All", "setting": "All (n = 20)", "result": "1 (5) n (%)"}, {"measurement": "Mouth ulceration, ≥ G3", "setting": "All (n = 20)", "result": "0 n (%)"}, {"measurement": "Nausea, All", "setting": "All (n = 20)", "result": "2 (10) n (%)"}, {"measurement": "Nausea, ≥ G3", "setting": "All (n = 20)", "result": "0 n (%)"}, {"measurement": "Oropharyngeal pain, All", "setting": "All (n = 20)", "result": "1 (5) n (%)"}, {"measurement": "Oropharyngeal pain, ≥ G3", "setting": "All (n = 20)", "result": "0 n (%)"}, {"measurement": "Pain, All", "setting": "All (n = 20)", "result": "1 (5) n (%)"}, {"measurement": "Pain, ≥ G3", "setting": "All (n = 20)", "result": "0 n (%)"}, {"measurement": "Palmar-plantar erythrodysaesthesia syndrome, All", "setting": "All (n = 20)", "result": "1 (5) n (%)"}, {"measurement": "Palmar-plantar erythrodysaesthesia syndrome, ≥ G3", "setting": "All (n = 20)", "result": "0 n (%)"}, {"measurement": "Platelet count decreased, All", "setting": "All (n = 20)", "result": "6 (30) n (%)"}, {"measurement": "Platelet count decreased, ≥ G3", "setting": "All (n = 20)", "result": "2 (10) n (%)"}, {"measurement": "Proteinuria, All", "setting": "All (n = 20)", "result": "1 (5) n (%)"}, {"measurement": "Proteinuria, ≥ G3", "setting": "All (n = 20)", "result": "0 n (%)"}, {"measurement": "Pyrexia, All", "setting": "All (n = 20)", "result": "1 (5) n (%)"}, {"measurement": "Pyrexia, ≥ G3", "setting": "All (n = 20)", "result": "0 n (%)"}, {"measurement": "Sinus bradycardia, All", "setting": "All (n = 20)", "result": "1 (5) n (%)"}, {"measurement": "Sinus bradycardia, ≥ G3", "setting": "All (n = 20)", "result": "0 n (%)"}, {"measurement": "Stomatitis, All", "setting": "All (n = 20)", "result": "2 (10) n (%)"}, {"measurement": "Stomatitis, ≥ G3", "setting": "All (n = 20)", "result": "1 (5) n (%)"}, {"measurement": "Vomiting, All", "setting": "All (n = 20)", "result": "1 (5) n (%)"}, {"measurement": "Vomiting, ≥ G3", "setting": "All (n = 20)", "result": "0 n (%)"}, {"measurement": "leukopenia, All", "setting": "All (n = 20)", "result": "9 (45) n (%)"}, {"measurement": "leukopenia, ≥ G3", "setting": "All (n = 20)", "result": "1 (5) n (%)"}, {"measurement": "neutropenia, All", "setting": "All (n = 20)", "result": "7 (35) n (%)"}, {"measurement": "neutropenia, ≥ G3", "setting": "All (n = 20)", "result": "0 n (%)"}, {"measurement": "transaminase elevation, ≥ G3", "setting": "All (n = 20)", "result": "1 (5) n (%)"}, {"measurement": "TRAE any grade: decreased appetite", "setting": "all patients n = 20", "result": 30, "unit": "%"}, {"measurement": "TRAE any grade: decreased platelet count", "setting": "all patients n = 20", "result": 30, "unit": "%"}, {"measurement": "TRAE any grade: hypertension", "setting": "all patients n = 20", "result": 20, "unit": "%"}, {"measurement": "TRAE any grade: leukopenia", "setting": "all patients n = 20", "result": 45, "unit": "%"}, {"measurement": "TRAE any grade: neutropenia", "setting": "all patients n = 20", "result": 35, "unit": "%"}, {"measurement": "TRAE any grade: transaminase elevation", "setting": "all patients n = 20", "result": 65, "unit": "%"}, {"measurement": "grade 3 TRAE: decreased appetite", "setting": "all patients n = 20", "result": 5, "unit": "%"}, {"measurement": "grade 3 TRAE: decreased blood sodium", "setting": "all patients n = 20", "result": 5, "unit": "%"}, {"measurement": "grade 3 TRAE: decreased platelet count", "setting": "all patients n = 20", "result": 10, "unit": "%"}, {"measurement": "grade 3 TRAE: elevated transaminase", "setting": "all patients n = 20", "result": 5, "unit": "%"}, {"measurement": "grade 3 TRAE: hypertension", "setting": "all patients n = 20", "result": 5, "unit": "%"}, {"measurement": "grade 3 TRAE: leukopenia", "setting": "all patients n = 20", "result": 5, "unit": "%"}, {"measurement": "grade 3 TRAE: stomatitis", "setting": "all patients n = 20", "result": 5, "unit": "%"}, {"measurement": "patients with at least one adverse event (AE)", "setting": "all patients n = 20", "result": 95, "unit": "%"}, {"measurement": "patients with grade 3 TRAEs", "setting": "all patients n = 20", "result": 15, "unit": "%"}, {"measurement": "patients with treatment-related adverse events (TRAEs)", "setting": "all patients n = 20", "result": 80, "unit": "%"}, {"measurement": "recommended dose for further study", "setting": "in vivo", "result": "60~100 mg QD"}, {"measurement": "MTD", "setting": "oral QD", "result": 100, "unit": "mg"}]}]}
